According to US20210008176A1, “COMPOSITIONS COMPRISING SULFORAPHANE OR A SULFORAPHANE PRECURSOR AND MAGNESIUM” (NUTRAMAX LABORATORIES, INC., priority 2012, published 2021):

Tests used:
[1] = tested on: myrosinase; test: Equimolar conversion of glucoraphanin to sulforaphane by myrosinase with and without ascorbic acid; format: biochemical, broccoli; conditions: control sample, without ascorbic acid
Procedure: A two-part experiment was conducted to further elucidate the role of ascorbic acid in modulating myrosinase activity. […] A control sample contained no ascorbic acid, and the enzymatic conversion proceeded unassisted by a co-factor. PART 1. […] PART 2. While keeping the amount of broccoli seed extract fixed at 250 mg, the concentration of ascorbic acid was varied from 0.4 mmol/Liter to 3.8 mmol/Liter.

[2] = tested on: broccoli sprout-derived myrosinase; test: Consumption of glucoraphanin by myrosinase as a function of ascorbic acid concentration; format: biochemical; conditions: for glucoraphanin (GR) content: 38° C.; for Slope (rate of glucoraphanin consumption): linear regression 0-60 min
Procedure: Consumption of Glucoraphanin as a Function of the Ascorbic Acid Concentration.
About 250 mg of broccoli seed extract containing about 12% (w/w) glucoraphanin were subjected to hydrolysis by a fixed concentration of broccoli sprout-derived myrosinase in the presence of variable concentration of ascorbic acid, ranging from 0 to 600 μmoles/Liter. The reaction mixtures were thermostated at 38° C.; aliquots were withdrawn every 15 minutes for 60 minutes, and concentration of glucoraphanin determined chromatographically. The rate of glucoraphanin consumption was interpreted as the rate its conversion to sulforaphane. Graphical representation of glucoraphanin content reduction as a function of increasing ascorbic acid concentration results in a series of linear plots; the slopes of the linear regression lines reflect the rate of glucoraphanin consumption, in μmoles/minute. It is apparent that in the presence of 600 μmoles/Liter concentration of ascorbic acid, the reaction rate increased 13-fold relative to that which proceeded in the absence of modulatory effects of ascorbic acid.

[3] = tested on: monocyte chemoattractant protein (MCP-1); conditions: RAW cells, 1μg/mL LPS 30 minutes, then 24 hours treatment; 0.5 μM SFN, 2.5 mM MgSO4, or both
Procedure: The following study was conducted to determine the effect of the combination of sulforaphane and magnesium sulfate (MgSO4) on expression of monocyte chemoattractant protein (MCP-1), which is a mediator of inflammation. MCP-1 is chemokine which attracts monocytes, macrophages, and lymphocytes to sites of inflammation. A reduction in MCP-1 is beneficial for the health of endothelial cells which line the cardiovascular system.
In the study, RAW cells were activated with 1μg/mL lipopolysaccharide (LPS) for 30 minutes to stimulate the induction of MCP-1 gene expression. Following LPS treatment, the cells were treated with one of the following: (i) DMSO (vehicle control), (ii) 0.5 μM SFN, (iii) 2.5 mM MgSO4, or (iv) the combination of 0.5 μM SFN and 2.5 mM MgSO4. After treatment for 24 hours, the MCP-1 levels were assessed via quantitative RT-PCR.

In the case of `C[S+]([O-])CCCC/C(=N\OS(=O)(=O)O)S[C@@H]1O[C@H](CO)[C@@H](O)[C@H](O)[C@H]1O` (stereo partly drawn) [GR, 4-methylsulfinylbutyl glucosinolate], the “stoichiometry of glucoraphanin conversion to sulforaphane” value [1] is reported as “equimolar conversion”, the “glucoraphanin (GR) content” value ([2]; ascorbic acid 0 μM, 0 min) is reported as 93.36 µmol and the “glucoraphanin (GR) content” value ([2]; ascorbic acid 0 μM, 15 min) is reported as 92.24 µmol. The “glucoraphanin (GR) content” value ([2]; ascorbic acid 0 μM, 30 min) was 90.71 µmol, the “glucoraphanin (GR) content” value ([2]; ascorbic acid 0 μM, 45 min) was 89.44 µmol and the “glucoraphanin (GR) content” value ([2]; ascorbic acid 0 μM, 60 min) was 87.79 µmol. For the same compound, the “Slope (rate of glucoraphanin consumption)” value (“Slope” below) ([2]; ascorbic acid 0 μM) was -0.09293 µmol/min, the “glucoraphanin (GR) content” value ([2]; ascorbic acid 50 μM, 0 min) was 93.36 µmol and the “glucoraphanin (GR) content” value ([2]; ascorbic acid 50 μM, 15 min) was 89.20 µmol. The “glucoraphanin (GR) content” value ([2]; ascorbic acid 50 μM, 30 min) was 84.24 µmol, the “glucoraphanin (GR) content” value ([2]; ascorbic acid 50 μM, 45 min) was 80.30 µmol and the “glucoraphanin (GR) content” value ([2]; ascorbic acid 50 μM, 60 min) was 76.36 µmol. For the same compound, the “Slope” value ([2]; ascorbic acid 50 μM) was -0.286 µmol/min, the “glucoraphanin (GR) content” value ([2]; ascorbic acid 125 μM, 0 min) was 93.36 µmol and the “glucoraphanin (GR) content” value ([2]; ascorbic acid 125 μM, 15 min) was 84.52 µmol. The “glucoraphanin (GR) content” value ([2]; ascorbic acid 125 μM, 30 min) was 75.92 µmol, the “glucoraphanin (GR) content” value ([2]; ascorbic acid 125 μM, 45 min) was 68.09 µmol and the “glucoraphanin (GR) content” value ([2]; ascorbic acid 125 μM, 60 min) was 59.41 µmol. The “Slope” value ([2]; ascorbic acid 125 μM) was -0.5622 µmol/min, the “glucoraphanin (GR) content” value ([2]; ascorbic acid 250 μM Filtered, 0 min) was 93.36 µmol and the “glucoraphanin (GR) content” value ([2]; ascorbic acid 250 μM Filtered, 15 min) was 86.31 µmol. For the same compound, the “glucoraphanin (GR) content” value ([2]; ascorbic acid 250 μM Filtered, 30 min) was 79.44 µmol, the “glucoraphanin (GR) content” value ([2]; ascorbic acid 250 μM Filtered, 45 min) was 71.94 µmol and the “glucoraphanin (GR) content” value ([2]; ascorbic acid 250 μM Filtered, 60 min) was 65.18 µmol. The “Slope” value ([2]; ascorbic acid 250 μM Filtered) was -0.4714 µmol/min, the “glucoraphanin (GR) content” value ([2]; ascorbic acid 250 μM, 0 min) was 93.36 µmol and the “glucoraphanin (GR) content” value ([2]; ascorbic acid 250 μM, 15 min) was 80.95 µmol. For the same compound, the “glucoraphanin (GR) content” value ([2]; ascorbic acid 250 μM, 30 min) was 69.06 µmol, the “glucoraphanin (GR) content” value ([2]; ascorbic acid 250 μM, 45 min) was 57.63 µmol and the “glucoraphanin (GR) content” value ([2]; ascorbic acid 250 μM, 60 min) was 45.76 µmol. The “Slope” value ([2]; ascorbic acid 250 μM) was -0.7901 µmol/min, the “glucoraphanin (GR) content” value ([2]; ascorbic acid 400 μM, 0 min) was 93.36 µmol and the “glucoraphanin (GR) content” value ([2]; ascorbic acid 400 μM, 15 min) was 78.32 µmol. The “glucoraphanin (GR) content” value ([2]; ascorbic acid 400 μM, 30 min) was 62.78 µmol, the “glucoraphanin (GR) content” value ([2]; ascorbic acid 400 μM, 45 min) was 47.67 µmol and the “glucoraphanin (GR) content” value ([2]; ascorbic acid 400 μM, 60 min) was 33.15 µmol. The “Slope” value ([2]; ascorbic acid 400 μM) was -1.007 µmol/min, the “glucoraphanin (GR) content” value ([2]; ascorbic acid 600 μM, 0 min) was 93.36 µmol and the “glucoraphanin (GR) content” value ([2]; ascorbic acid 600 μM, 15 min) was 75.02 µmol. The “glucoraphanin (GR) content” value ([2]; ascorbic acid 600 μM, 30 min) was 55.66 µmol, the “glucoraphanin (GR) content” value ([2]; ascorbic acid 600 μM, 45 min) was 37.50 µmol and the “glucoraphanin (GR) content” value ([2]; ascorbic acid 600 μM, 60 min) was 22.09 µmol. For the same compound, the “Slope” value ([2]; ascorbic acid 600 μM) was -1.2 µmol/min.

For `O=S(=O)([O-])[O-].[Mg+2]` [magnesium sulfate], the “reduction in MCP-1 levels” value [3] was “approximately 16%”.

`C[S+]([O-])CCCCN=C=S` (stereo not drawn) [sulforaphane, 1-isothiocyanato-4-methylsulfinylbutane] was tested, and the “reduction in MCP-1 levels” value [3] was “approximately 29%”.
